Experimental data taken from patent US8551721B2, “Bioluminescent detection of cyanohydroxy benzothiazole compounds” (Promega Corporation, priority 2008, dated 2013).
Values belong to the compound of their own block, whether it stands above or below them.

How the values were obtained:
UGT isozymes = conditions: cited from earlier work; for Isozymes Modulated: isozymes currently reported in the literature to be modulated by the compound
rat liver microsomes = assay: Utilization of compound 3165 by rat liver microsomes; type: biochemical; conditions: 2 hours at 37° C., 0.2 mg/mL microsomes, 50 μM compound
Method: (§1) The invention includes a method of determining activity of the uridine 5′-diphospho-glucuronosyltransferase (UDP-glucuronosyltransferase, or UGT) family enzymes in vitro. Briefly, UGT enzymes from overexpressed insect microsomes (Supersomes™, BD Gentest™) or animal tissue microsomes (Xenotech, BD Gentest™) were incubated with a cyanobenzothiazole substrate of the invention and the cofactor UDP-glucuronic acid (UDPGA) at 37° C. in buffer at physiological pH containing MgCl2 and alamethicin (typically, 50 mM TES, pH 7.5, 8 mM MgCl2, 4 mM UDPGA (Sigma) and 25 μg/mL alamethicin (Sigma)). […]
(§2) During this incubation, the cysteine reacts with the cyanobenzathiozole substrate to yield a D-luciferin derivative. […] Therefore, activity of the UGT enzyme can be measured by analyzing the difference (lower or no output) in relative light units (RLU) of a sample in which glucuronidation occurs compared to a sample that was run under the same conditions with no added UDPGA cofactor.
(§3) The ability of endogenously expressed UGT isozymes to utilize compounds 3138 and 3165 as substrates was determined in a similar manner to the assays with recombinant microsomes (Example 1). […]

UGT 1A4 = biological target: T1, UGT 1A4 (Homo sapiens, UniProt P22310); assay: UGT activity: utilization of substrate by recombinant UGT 1A4 Supersomes; type: biochemical; conditions: 2 hour incubation at 37° C., plus vs minus UDPGA
T1 construct: purchased BD Gentest; host or cells: insect cells (microsomes)
T1 sequence (P22310 29-534): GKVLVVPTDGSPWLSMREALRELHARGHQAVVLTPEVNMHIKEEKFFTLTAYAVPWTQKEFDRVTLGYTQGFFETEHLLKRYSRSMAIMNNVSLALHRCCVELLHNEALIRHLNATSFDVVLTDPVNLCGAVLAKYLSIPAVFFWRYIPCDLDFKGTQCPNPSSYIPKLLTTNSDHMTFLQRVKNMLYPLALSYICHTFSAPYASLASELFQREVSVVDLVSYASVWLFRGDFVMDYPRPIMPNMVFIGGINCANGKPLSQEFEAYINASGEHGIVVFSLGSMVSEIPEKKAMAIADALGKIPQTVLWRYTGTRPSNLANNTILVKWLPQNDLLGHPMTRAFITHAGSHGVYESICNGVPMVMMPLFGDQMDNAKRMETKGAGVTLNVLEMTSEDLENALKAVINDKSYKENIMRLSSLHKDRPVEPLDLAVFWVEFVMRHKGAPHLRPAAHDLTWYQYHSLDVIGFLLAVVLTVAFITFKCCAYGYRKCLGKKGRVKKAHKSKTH
Method: The invention includes a method of determining activity of the uridine 5′-diphospho-glucuronosyltransferase (UDP-glucuronosyltransferase, or UGT) family enzymes in vitro. Briefly, UGT enzymes from overexpressed insect microsomes (Supersomes™, BD Gentest™) or animal tissue microsomes (Xenotech, BD Gentest™) were incubated with a cyanobenzothiazole substrate of the invention and the cofactor UDP-glucuronic acid (UDPGA) at 37° C. in buffer at physiological pH containing MgCl2 and alamethicin (typically, 50 mM TES, pH 7.5, 8 mM MgCl2, 4 mM UDPGA (Sigma) and 25 μg/mL alamethicin (Sigma)). Following the UGT enzyme reaction, an equal volume of P450-Glo Luciferin Detection Reagent (Promega) containing 15-30 mM D-cysteine-HCl.H2O (Sigma) was added and the plate was mixed and incubated at room temperature, typically for 20-30 minutes. P450-Glo Luciferin Detection Reagent can be prepared by dissolving a vial of Promega Luciferin Detection Reagent (Promega Part #V859B) with a vial of Promega P450-Glo Buffer (Promega Part #V865B).
as §2
In this example, a series of 12 recombinant UGTs expressed in insect microsomes (Supersomes™, BD Gentest™), as well as the control microsomes not expressing the UGT enzyme, were incubated with compound 3138, compound 3478, or compound 3165 as substrates, with or without the UDPGA co-factor. […]
Reactions were assembled in a white 96-well plate. […] After the incubation was completed, the plate was read on a Veritas™ luminometer (Turner BioSystems, Inc.; Sunnyvale, Calif.). […]

mouse liver microsomes = assay: Utilization of compound 3165 by mouse liver microsomes; type: biochemical; conditions: 2 hours at 37° C., 0.2 mg/mL microsomes, 50 μM compound
Method: as §1, §2, §3

human liver microsomes = assay: Utilization of compound 3165 by human liver, renal and intestinal microsomes; type: biochemical; conditions: 2 hours at 37° C., 0.2 mg/mL microsomes, 50 μM compound
Method: as §1, §2, §3

[1] = test system: endogenously expressed UGT isozymes in mammalian microsomes; assay: Utilization of compounds by mammalian microsomes; type: biochemical; conditions: 0.2 mg/mL microsomes, 50 μM compound, reactions run for 2 hours
Method: The invention includes a method of determining activity of the uridine 5′-diphospho-glucuronosyltransferase (UDP-glucuronosyltransferase, or UGT) family enzymes in vitro. […] Following the UGT enzyme reaction, an equal volume of P450-Glo Luciferin Detection Reagent (Promega) containing 15-30 mM D-cysteine-HCl.H2O (Sigma) was added and the plate was mixed and incubated at room temperature, typically for 20-30 minutes. P450-Glo Luciferin Detection Reagent can be prepared by dissolving a vial of Promega Luciferin Detection Reagent (Promega Part #V859B) with a vial of Promega P450-Glo Buffer (Promega Part #V865B).
as §2
Tissue microsomes were obtained from Xenotech LLC or BD Gentest.

GST M1-1 = biological target: T2, GST M1-1 (Homo sapiens, UniProt P09488); assay: Utilization of benzothiazole by GST M1-1; type: biochemical; conditions: 55 minutes at room temperature; for light produced with GST M1-1 minus no enzyme, concentrated substrate: concentrated substrate solution (approximately 1 mg/mL diluted 1:100), glutathione; for light produced with GST M1-1 minus no enzyme, diluted substrate: substrate solution diluted 1:3.1, glutathione
T2 sequence (P09488 1-218): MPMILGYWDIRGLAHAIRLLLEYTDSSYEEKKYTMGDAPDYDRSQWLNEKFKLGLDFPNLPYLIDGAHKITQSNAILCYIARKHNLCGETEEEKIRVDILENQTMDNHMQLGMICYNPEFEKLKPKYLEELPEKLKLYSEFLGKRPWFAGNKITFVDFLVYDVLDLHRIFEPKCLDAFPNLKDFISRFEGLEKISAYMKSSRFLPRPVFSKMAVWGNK
Method: (§4) A small amount of compound 934-37 was dissolved in DMSO to produce a solution approximately 1 mg/mL. This solution was diluted 1:100 (v/v) into 50 mM HEPES buffer pH 7.5 to produce a substrate solution. Twenty μL of this solution was placed in 10 wells of a 96 well white luminometer plate (Promega part Z3291), then the solution was diluted 1:3.1 and 20 μL of the dilution was placed into another 10 wells in the luminometer plate.
(§5) D-Cysteine, 4 mg (Sigma Chemical Corp.; C8005-1 g, 017K1034) was dissolved into 1 mL of 50 mM HEPES buffer pH 7.5, then 4 μL added to 4 of the wells containing the substrate solution and 4 of the wells with diluted substrate solution to convert compound 934-37 to the corresponding luciferin derivative. The structures of these compounds are shown below.
(§6) A sample of GST M1-1 (1.2 mg/mL) and 100 μL of 100 mM glutathione was diluted into 5 mL of 50 mM HEPES pH 7.5, then 25 μL added to: two of the wells with unconverted, concentrated compound 934-37; 2 wells with concentrated and converted compound 934-37; and two of the wells with unconverted, diluted compound 934-37 and 2 of the wells with converted, diluted compound 934-37.
(§7) Glutathione (100 μL of 100 mM glutathione) had been diluted to 5 mL with 50 mM HEPES buffer pH 7.5, then 25 μL added to the remaining wells of converted and unconverted compound 934-37 in concentrated and diluted solution.
(§8) After 55 minutes at room temperature, 4 μL of the D-cysteine solution above was added to all wells that had not received cysteine before, then 50 μL of P450 Glo Luciferin Detection Reagent (made by dissolving a vial of Promega Luciferin Detection Reagent (Promega Part #V859B) with a vial of Promega P450-Glo Buffer (Promega Part #V865B). The plate was then placed into a Glo Max luminometer (Promega Corp.) and the light read after 15 minutes of incubation. The values obtained were averaged and the average value of the light produced from the wells given no enzyme were then subtracted from the average of the light produced with enzyme.

GST A1-1 = biological target: T3, GST A1-1 (Homo sapiens, UniProt P08263); assay: Utilization of benzothiazole by GST A1-1; type: biochemical; conditions: 55 minutes at room temperature; for light produced with GST A1-1 minus no enzyme, concentrated substrate: concentrated substrate solution (approximately 1 mg/mL diluted 1:100), glutathione; for light produced with GST A1-1 minus no enzyme, diluted substrate: substrate solution diluted 1:3.1, glutathione
T3 sequence (P08263 1-222): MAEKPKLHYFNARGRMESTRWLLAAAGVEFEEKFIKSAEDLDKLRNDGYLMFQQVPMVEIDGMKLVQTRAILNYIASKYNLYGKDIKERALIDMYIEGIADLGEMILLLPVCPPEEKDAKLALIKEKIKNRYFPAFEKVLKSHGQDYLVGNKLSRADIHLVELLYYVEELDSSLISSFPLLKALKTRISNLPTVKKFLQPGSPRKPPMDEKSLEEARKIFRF
Method: as §4, §5
as §6, with “A1-1” for “M1-1”, “glutathione in water” for “glutathione”
as §7, §8

Compound: C=C[C@H]1C[N@@]2CC[C@H]1C[C@@H]2[C@@H](O)c1ccnc2ccc(OC)cc12 [Quinidine]
Isozymes Modulated (UGT isozymes): 2B7 and 2B15, others to a lesser extent

Compound: CC(C)c1nc(CN(C)C(=O)N[C@H](C(=O)N[C@@H](Cc2ccccc2)C[C@H](O)[C@H](Cc2ccccc2)NC(=O)OCc2cncs2)C(C)C)cs1 [Ritonavir]
inhibition of UGT isozymes as reported in the literature (UGT isozymes; literature report): inhibits UGT 1A 1 and 1A4, but has little effect on UGT 2B7

Compound: Cc1cc(NCc2cccc(N)c2)cc2sc(C#N)nc12 [compound 3165]
utilization of compound 3165 by rat liver microsomes (rat liver microsomes): Activity was also seen for both rat and mouse liver microsomes
utilization by UGT 1A4 (in words) (UGT 1A4): only utilized by UGT 1A4
utilization of compound 3165 by mouse liver microsomes (mouse liver microsomes): Activity was also seen for both rat and mouse liver microsomes
utilization of compound 3165: human liver vs human renal and intestinal microsomes (human liver microsomes): much higher for human liver microsomes than either human renal or human intestinal microsomes
rate of utilization of compound 3165 by mammalian microsomes (compared with compound 3138) [1]: much slower

Compound: O=c1cc(C(F)(F)F)c2ccc(O)cc2o1 [7-hydroxy-4-trifluoromethyl coumarin]
Isozymes Modulated (UGT isozymes): Substrate for 1A1, 1A3, 1A6, 1A9, 2B7

light produced with GST M1-1 minus no enzyme, concentrated substrate (GST M1-1): 315,759 RLU
light produced with GST M1-1 minus no enzyme, diluted substrate (GST M1-1): 213,920 RLU
light produced with GST A1-1 minus no enzyme, concentrated substrate (GST A1-1): 6,410 RLU
light produced with GST A1-1 minus no enzyme, diluted substrate (GST A1-1): 6,462 RLU
Compound: Cc1cc(S(=O)(=O)Oc2ccc3nc(C4=N[C@@H](C(=O)O)CS4)sc3c2)ccc1[N+](=O)[O-] [converted compound 934-37]

Compound: O=c1ccc2ccc(O)cc2o1 [Umbelliferne]
Isozymes Modulated (UGT isozymes): Substrate of most isozymes

light produced with GST M1-1 minus no enzyme, concentrated substrate (GST M1-1): 41,212 RLU
light produced with GST M1-1 minus no enzyme, diluted substrate (GST M1-1): 30,428 RLU
light produced with GST A1-1 minus no enzyme, concentrated substrate (GST A1-1): 164,400 RLU
light produced with GST A1-1 minus no enzyme, diluted substrate (GST A1-1): 195,021 RLU
Compound: Cc1cc(S(=O)(=O)Oc2ccc3nc(C#N)sc3c2)ccc1[N+](=O)[O-] [compound 934-37]
